# Laboratory results taken from ChEMBL document CHEMBL4680216, “Comparative analysis of the dual EGFR-DNA targeting and growth inhibitory properties of 6-mono-alkylamino- and 6,6-dialkylaminoquinazoline-based type II combi-molecules” (Eur J Med Chem, 2020).
# Activity calls are given as the source filed them. The calls are words filed in the database; no cut-off is given here.
# Molecular target: T1, Epidermal growth factor receptor (Homo sapiens, UniProt P00533)
# Assay: Inhibition of EGFR phosphorylation in human A549 cells assessed as downregulation AKT pathway at 1 to 10 uM preincubated for 2 hrs followed by EGF stimulation and measured after 30 mins by Western blot analysis
# Format: cell-based
# Settings: dose 1-10 µM, time 2.5 hrs
# T1 sequence (P00533 whole entry): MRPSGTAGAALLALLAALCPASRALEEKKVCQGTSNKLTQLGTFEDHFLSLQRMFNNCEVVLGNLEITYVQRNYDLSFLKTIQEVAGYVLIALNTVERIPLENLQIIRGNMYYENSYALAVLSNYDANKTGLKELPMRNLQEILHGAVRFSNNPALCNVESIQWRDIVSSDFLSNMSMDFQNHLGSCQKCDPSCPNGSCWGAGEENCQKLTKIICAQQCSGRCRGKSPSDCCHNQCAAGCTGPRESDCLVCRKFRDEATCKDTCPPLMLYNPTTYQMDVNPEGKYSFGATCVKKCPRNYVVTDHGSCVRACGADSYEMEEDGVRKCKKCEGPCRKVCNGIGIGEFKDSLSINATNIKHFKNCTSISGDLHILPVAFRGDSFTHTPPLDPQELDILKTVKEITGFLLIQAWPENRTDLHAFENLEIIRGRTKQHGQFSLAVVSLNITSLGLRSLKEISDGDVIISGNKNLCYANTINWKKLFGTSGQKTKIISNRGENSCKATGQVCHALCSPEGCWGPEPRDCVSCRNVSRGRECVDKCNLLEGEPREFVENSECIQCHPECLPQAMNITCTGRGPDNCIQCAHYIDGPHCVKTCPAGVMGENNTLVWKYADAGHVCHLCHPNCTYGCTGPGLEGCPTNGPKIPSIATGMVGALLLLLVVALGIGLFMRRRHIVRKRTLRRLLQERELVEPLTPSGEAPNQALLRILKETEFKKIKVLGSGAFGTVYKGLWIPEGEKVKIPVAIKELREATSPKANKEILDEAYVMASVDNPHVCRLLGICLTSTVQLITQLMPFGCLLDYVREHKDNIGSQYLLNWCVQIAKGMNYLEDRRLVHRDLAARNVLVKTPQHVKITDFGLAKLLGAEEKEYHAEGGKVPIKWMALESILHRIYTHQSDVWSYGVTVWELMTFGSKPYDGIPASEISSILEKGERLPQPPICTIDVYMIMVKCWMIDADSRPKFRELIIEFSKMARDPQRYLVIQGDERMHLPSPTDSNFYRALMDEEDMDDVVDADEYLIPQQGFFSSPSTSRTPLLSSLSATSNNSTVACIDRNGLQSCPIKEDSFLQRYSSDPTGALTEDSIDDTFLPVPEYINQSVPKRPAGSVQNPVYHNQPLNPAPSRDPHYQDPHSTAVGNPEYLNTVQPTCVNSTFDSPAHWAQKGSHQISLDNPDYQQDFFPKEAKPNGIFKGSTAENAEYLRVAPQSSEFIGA
row,Compound,inhibition
1,ClCCN(CCCl)c1ccc2ncnc(Nc3cccc(Br)c3)c2c1,Active
2,ClCCNc1ccc2ncnc(Nc3cccc(Br)c3)c2c1,Active
3,CN(CCCl)c1ccc2ncnc(Nc3cccc(Br)c3)c2c1,Active

# Molecular target: T1, Epidermal growth factor receptor
# Assay: Inhibition of EGFR phosphorylation in human A549 cells at 1 to 10 uM preincubated for 2 hrs followed by EGF stimulation and measured after 30 mins by Western blot analysis
# Format: cell-based
# Settings: dose 1-10 µM, time 2.5 hrs
row,Compound,inhibition
1,ClCCN(CCCl)c1ccc2ncnc(Nc3cccc(Br)c3)c2c1,Active
2,O=C(O)CCCc1ccc(N(CCCl)CCCl)cc1 [CHLORAMBUCIL],inactive
3,ClCCNc1ccc2ncnc(Nc3cccc(Br)c3)c2c1,Active
4,CN(CCCl)c1ccc2ncnc(Nc3cccc(Br)c3)c2c1,Active

# Molecular target: T1, Epidermal growth factor receptor
# Assay: Inhibition of EGFR (unknown origin) using poly (Glu,Tyr) 4:1 as substrate incubated for 8 mins in presence of ATP by colorimetric analysis
# Settings: not given
row,Compound,IC50 [µM]
1,ClCCN(CCCl)c1ccc2ncnc(Nc3cccc(Br)c3)c2c1,1.26
2,CN(CCCl)c1ccc2ncnc(Nc3cccc(Br)c3)c2c1,0.504

# Test system: PC-9
# Assay: Growth inhibition of human PC-9 cells incubated for 5 days by SRB assay
# Format: functional, cell-based
# Settings: PC-9, 120 h
row,Compound,IC50 [µM]
1,CC(=O)OCCN(C)c1ccc2ncnc(Nc3cccc(Br)c3)c2c1,0.098
2,ClCCN(CCCl)c1ccc2ncnc(Nc3cccc(Br)c3)c2c1,0.203
3,O=C(O)CCCc1ccc(N(CCCl)CCCl)cc1 [CHLORAMBUCIL],7.17
4,CN(CCO)c1ccc2ncnc(Nc3cccc(Br)c3)c2c1,0.103
5,OCCN(CCO)c1ccc2ncnc(Nc3cccc(Br)c3)c2c1,0.07
6,ClCCNc1ccc2ncnc(Nc3cccc(Br)c3)c2c1,0.09
7,CC(=O)OCCN(CCOC(C)=O)c1ccc2ncnc(Nc3cccc(Br)c3)c2c1,0.13
8,CC(=O)OCCN(CCO)c1ccc2ncnc(Nc3cccc(Br)c3)c2c1,0.086
9,CN(CCCl)c1ccc2ncnc(Nc3cccc(Br)c3)c2c1,0.21

# Molecular target: T1, Epidermal growth factor receptor
# Assay: Inhibition of EGFR phosphorylation in human A549 cells assessed as downregulation MAPK pathway at 1 to 10 uM preincubated for 2 hrs followed by EGF stimulation and measured after 30 mins by Western blot analysis
# Format: cell-based
# Settings: dose 1-10 µM, time 2.5 hrs
row,Compound,inhibition
1,ClCCN(CCCl)c1ccc2ncnc(Nc3cccc(Br)c3)c2c1,Active
2,ClCCNc1ccc2ncnc(Nc3cccc(Br)c3)c2c1,Active
3,CN(CCCl)c1ccc2ncnc(Nc3cccc(Br)c3)c2c1,Active

# Test system: A549
# Assay: Growth inhibition of human A549 cells incubated for 5 days by SRB assay
# Format: functional, cell-based
# Settings: A549, 120 h
row,Compound,IC50 [µM]
1,CC(=O)OCCN(C)c1ccc2ncnc(Nc3cccc(Br)c3)c2c1,30.5
2,ClCCN(CCCl)c1ccc2ncnc(Nc3cccc(Br)c3)c2c1,6.51
3,O=C(O)CCCc1ccc(N(CCCl)CCCl)cc1 [CHLORAMBUCIL],24.5
4,CN(CCO)c1ccc2ncnc(Nc3cccc(Br)c3)c2c1,34.5
5,OCCN(CCO)c1ccc2ncnc(Nc3cccc(Br)c3)c2c1,46.6
6,ClCCNc1ccc2ncnc(Nc3cccc(Br)c3)c2c1,2.06
7,CC(=O)OCCN(CCOC(C)=O)c1ccc2ncnc(Nc3cccc(Br)c3)c2c1,52.6
8,CC(=O)OCCN(CCO)c1ccc2ncnc(Nc3cccc(Br)c3)c2c1,48
9,CN(CCCl)c1ccc2ncnc(Nc3cccc(Br)c3)c2c1,3.16

# Molecular target: T1, Epidermal growth factor receptor
# Assay: Inhibition of EGFR phosphorylation in human NCI-H1975 cells at 1 to 10 uM preincubated for 2 hrs followed by EGF stimulation and measured after 30 mins by Western blot analysis
# Format: cell-based
# Settings: dose 1-10 µM, time 2.5 hrs
row,Compound,inhibition
1,ClCCN(CCCl)c1ccc2ncnc(Nc3cccc(Br)c3)c2c1,Active
2,O=C(O)CCCc1ccc(N(CCCl)CCCl)cc1 [CHLORAMBUCIL],inactive

# Test system: Calf thymus DNA
# Assay: Binding affinity to calf thymus DNA assessed as guanine alkylated adduct formation at 10 mM after 5 days by LC-MS/MS analysis
# Format: nucleic-acid assay
# Settings: Bos taurus, time 5.0 day
row,Compound,Activity
1,ClCCN(CCCl)c1ccc2ncnc(Nc3cccc(Br)c3)c2c1,Active
2,ClCCNc1ccc2ncnc(Nc3cccc(Br)c3)c2c1,Active
3,CN(CCCl)c1ccc2ncnc(Nc3cccc(Br)c3)c2c1,Active

# Test system: NCI-H1975
# Assay: Potency index, ratio of gefitinib IC50 to test compound IC50 for growth inhibition of human NCI-H1975 cells
# Format: functional
# Settings: not given
row,Compound,Ratio IC50
1,CN(CCCl)c1ccc2ncnc(Nc3cccc(Br)c3)c2c1,2

# Test system: NCI-H1975
# Assay: Potency index, ratio of gefitinib IC50 in presence of chlorambucil to test compound IC50 for growth inhibition of human NCI-H1975 cells
# Format: functional
# Settings: not given
row,Compound,Ratio IC50
1,CN(CCCl)c1ccc2ncnc(Nc3cccc(Br)c3)c2c1,2

# Molecular target: T1, Epidermal growth factor receptor
# Assay: Irreversible inhibition of EGFR in human A549 cells at 2 uM preincubated for 2 hrs followed by compound wash out with serum free media followed by EGF stimulation and measured after 30 mins by Western blot analysis
# Format: cell-based
# Settings: time 2.5 hrs
row,Compound,inhibition
1,ClCCN(CCCl)c1ccc2ncnc(Nc3cccc(Br)c3)c2c1,Active
2,ClCCNc1ccc2ncnc(Nc3cccc(Br)c3)c2c1,Active
3,CN(CCCl)c1ccc2ncnc(Nc3cccc(Br)c3)c2c1,inactive

# Molecular target: T1, Epidermal growth factor receptor
# Assay: Inhibition of EGFR phosphorylation in human PC-9 cells assessed as downregulation AKT pathway at 1 to 10 uM preincubated for 2 hrs followed by EGF stimulation and measured after 30 mins by Western blot analysis
# Format: cell-based
# Settings: dose 1-10 µM, time 2.5 hrs
row,Compound,inhibition
1,ClCCN(CCCl)c1ccc2ncnc(Nc3cccc(Br)c3)c2c1,Active
2,ClCCNc1ccc2ncnc(Nc3cccc(Br)c3)c2c1,Active
3,CN(CCCl)c1ccc2ncnc(Nc3cccc(Br)c3)c2c1,Active

# Molecular target: T1, Epidermal growth factor receptor
# Assay: Inhibition of EGFR phosphorylation in human NCI-H1975 cells assessed as downregulation AKT pathway at 1 to 10 uM preincubated for 2 hrs followed by EGF stimulation and measured after 30 mins by Western blot analysis
# Format: cell-based
# Settings: dose 1-10 µM, time 2.5 hrs
row,Compound,inhibition
1,ClCCN(CCCl)c1ccc2ncnc(Nc3cccc(Br)c3)c2c1,Active

# Molecular target: T1, Epidermal growth factor receptor
# Assay: Inhibition of EGFR phosphorylation in human PC-9 cells at 1 to 10 uM preincubated for 2 hrs followed by EGF stimulation and measured after 30 mins by Western blot analysis
# Format: cell-based
# Settings: dose 1-10 µM, time 2.5 hrs
row,Compound,inhibition
1,ClCCN(CCCl)c1ccc2ncnc(Nc3cccc(Br)c3)c2c1,Active
2,O=C(O)CCCc1ccc(N(CCCl)CCCl)cc1 [CHLORAMBUCIL],inactive
3,ClCCNc1ccc2ncnc(Nc3cccc(Br)c3)c2c1,Active
4,CN(CCCl)c1ccc2ncnc(Nc3cccc(Br)c3)c2c1,Active

# Test system: NCI-H1975
# Assay: Growth inhibition of human NCI-H1975 cells incubated for 5 days by SRB assay
# Format: functional, cell-based
# Settings: NCI-H1975, 120 h
row,Compound,IC50 [µM]
1,CC(=O)OCCN(C)c1ccc2ncnc(Nc3cccc(Br)c3)c2c1,9.4
2,ClCCN(CCCl)c1ccc2ncnc(Nc3cccc(Br)c3)c2c1,6.07
3,O=C(O)CCCc1ccc(N(CCCl)CCCl)cc1 [CHLORAMBUCIL],28.2
4,CN(CCO)c1ccc2ncnc(Nc3cccc(Br)c3)c2c1,11.3
5,OCCN(CCO)c1ccc2ncnc(Nc3cccc(Br)c3)c2c1,18.1
6,ClCCNc1ccc2ncnc(Nc3cccc(Br)c3)c2c1,0.48
7,CC(=O)OCCN(CCOC(C)=O)c1ccc2ncnc(Nc3cccc(Br)c3)c2c1,20.2
8,CC(=O)OCCN(CCO)c1ccc2ncnc(Nc3cccc(Br)c3)c2c1,16
9,CN(CCCl)c1ccc2ncnc(Nc3cccc(Br)c3)c2c1,2.81

# Test system: A549
# Assay: Induction of DNA damage in human A549 cells at 0.1 to 10 uM after 2 hrs by comet assay
# Format: functional, cell-based
# Settings: dose 0.1-10 µM
row,Compound,Activity
1,ClCCN(CCCl)c1ccc2ncnc(Nc3cccc(Br)c3)c2c1,Active
2,O=C(O)CCCc1ccc(N(CCCl)CCCl)cc1 [CHLORAMBUCIL],inactive
3,ClCCNc1ccc2ncnc(Nc3cccc(Br)c3)c2c1,Active
4,COc1cc2ncnc(Nc3ccc(F)c(Cl)c3)c2cc1OCCCN1CCOCC1,inactive
5,CN(CCCl)c1ccc2ncnc(Nc3cccc(Br)c3)c2c1,Active

# Molecular target: T1, Epidermal growth factor receptor
# Assay: Inhibition of EGFR phosphorylation in human NCI-H1975 cells assessed as downregulation MAPK pathway at 1 to 10 uM preincubated for 2 hrs followed by EGF stimulation and measured after 30 mins by Western blot analysis
# Format: cell-based
# Settings: dose 1-10 µM, time 2.5 hrs
row,Compound,inhibition
1,ClCCN(CCCl)c1ccc2ncnc(Nc3cccc(Br)c3)c2c1,Active

# Test system: not listed separately
# Assay: Toxicity in po dosed CD-1 mouse assessed as maximum tolerated dose
# Format: organism-based
# Settings: in vivo
row,Compound,MTD [mg/kg]
1,ClCCN(CCCl)c1ccc2ncnc(Nc3cccc(Br)c3)c2c1,150
2,ClCCNc1ccc2ncnc(Nc3cccc(Br)c3)c2c1,150
3,CN(CCCl)c1ccc2ncnc(Nc3cccc(Br)c3)c2c1,150

# Test system: A549
# Assay: Potency index, ratio of gefitinib IC50 to test compound IC50 for growth inhibition of human A549 cells
# Format: functional
# Settings: not given
row,Compound,Ratio IC50
1,CN(CCCl)c1ccc2ncnc(Nc3cccc(Br)c3)c2c1,2

# Test system: Calf thymus DNA
# Assay: Binding affinity to calf thymus DNA assessed as compound hydrolysis at 10 mM after 5 days by LC-MS/MS analysis
# Format: nucleic-acid assay
# Settings: Bos taurus, time 5.0 day
row,Compound,Activity
1,ClCCN(CCCl)c1ccc2ncnc(Nc3cccc(Br)c3)c2c1,Active
2,ClCCNc1ccc2ncnc(Nc3cccc(Br)c3)c2c1,Active
3,CN(CCCl)c1ccc2ncnc(Nc3cccc(Br)c3)c2c1,Active

# Test system: A549
# Assay: Potency index, ratio of gefitinib IC50 in presence of chlorambucil to test compound IC50 for growth inhibition of human A549 cells
# Format: functional
# Settings: not given
row,Compound,Ratio IC50
1,CN(CCCl)c1ccc2ncnc(Nc3cccc(Br)c3)c2c1,2

# Molecular target: T1, Epidermal growth factor receptor
# Assay: Inhibition of EGFR phosphorylation in human PC-9 cells assessed as downregulation MAPK pathway at 1 to 10 uM preincubated for 2 hrs followed by EGF stimulation and measured after 30 mins by Western blot analysis
# Format: cell-based
# Settings: dose 1-10 µM, time 2.5 hrs
row,Compound,inhibition
1,ClCCN(CCCl)c1ccc2ncnc(Nc3cccc(Br)c3)c2c1,Active
2,ClCCNc1ccc2ncnc(Nc3cccc(Br)c3)c2c1,Active
3,CN(CCCl)c1ccc2ncnc(Nc3cccc(Br)c3)c2c1,Active

# Test system: Calf thymus DNA
# Assay: Binding affinity to calf thymus DNA assessed as adenine alkylated adduct formation at 10 mM after 5 days by LC-MS/MS analysis
# Format: nucleic-acid assay
# Settings: Bos taurus, time 5.0 day
row,Compound,Activity
1,ClCCN(CCCl)c1ccc2ncnc(Nc3cccc(Br)c3)c2c1,Active
2,ClCCNc1ccc2ncnc(Nc3cccc(Br)c3)c2c1,Active
3,CN(CCCl)c1ccc2ncnc(Nc3cccc(Br)c3)c2c1,Active
